Test results reported in patent US8551978B2 (Theravance, Inc., priority 2009, dated 2013).
Where a name gives a salt, the structure may show the parent alone. Read-outs that look alike come from different tables or passages of the source.

Tests used:
[1] = system: MCh-induced bronchoconstriction; assay: Einthoven assay: bronchoprotection against methacholine (MCh)-induced bronchoconstriction; assay type: in vivo, rat; conditions: for inhibition in vivo at 0.1 mg: inhaled or nasal, read-out: Broncho. at 24 h
Description: This assay measures the ability of a test compound to provide bronchoprotection against methacholine (MCh)-induced bronchoconstriction in a rat. Male Sprague-Dawley rats (Harlan, Indianapolis, Ind.), weighing between 200 g and 350 g, were used for all studies. Test compound or vehicle (sterile deionized water) were dosed by inhalation (1H) over a 10 min period in a pie shaped inhalation chamber (R+S Molds, San Carlos, Calif.) using 5 mL of dosing solution. […] Rats were dosed with 100 μg of test compound unless otherwise indicated. At predetermined time points, rats were anesthetized with an intraperitoneal (IP) injection of 120 mg/kg inactin (thiobutabarbital). A supplemental dose (40 mg/kg, IP) was administered if the animal responded to physical stimuli (e.g. toe pinch). The surgical site was shaved and a 1-2 cm midline incision of the ventral aspect of the neck was made. The jugular vein was isolated and cannulated with a saline-filled polyethylene catheter (PE-50) to allow IV infusion of MCh. Trachea was dissected free and cannulated with a 14G needle (#NE-014, Small Parts, Miami Lakes, Fla.). After placement of the tracheal cannula, each rat was ventilated using a respirator (Model 683, Harvard Apparatus, Inc., MA) set at a stroke volume of 1 mL/100 g body weight (but not exceeding 2.5 mL volume) and a rate of 90 strokes per minute. A T-connector was placed along the respirator expiratory tubing to allow for measurement of changes in ventilation pressure (VP) using a Biopac transducer that was connected to a Biopac […]) pre-amplifier. Body temperature was maintained at 37° C. using a heating pad. Changes in VP were recorded using the Acknowledge Data Collection Software (Santa Barbara, Calif.). Baseline values were collected for at least 2.5 min. Rats were then challenged with non-cumulative intravenous (IV) infusions of 40 and 80 μg/kg MCh. MCh was infused intravenously for 2.5 minutes from a syringe pump (sp210iw, World Precision Instruments, Inc., Sarasota, Fla.) at a rate of 2 mL/kg/min, with a 2 minute interval between the two doses of MCh. Changes in ventilation pressure (cm H2O) in treated animals are expressed as % inhibition of MCh response relative to control animals. Other bronchoconstrictors, such as histamine and acetylcholine, can be used in place of MCh in this assay. Additionally, guinea pigs can be used instead of rats. […] Inhibition greater than or equal to 30 percent at 24 h is indicative of a long duration of action.

[2] = target: hβ2 adrenergic receptor (Homo sapiens (Human), UniProt P07550); assay: Assay for determining adrenergic receptor agonist potency (cAMP Flashplate, HEK-293 cells); assay type: cell-based; conditions: data rounded to nearest 1 nM
Description: The cell monolayer was lifted with 2 mM EDTA in PBS. Cells were pelleted by centrifugation at 1,000 rpm, and cell pellets were either stored frozen at −80° C. or membranes were prepared immediately for use. cAMP assays were performed in a radioimmunoassay format using the Flashplate Adenylyl Cyclase Activation Assay System with [^125I]-cAMP (NEN SMP004, PerkinElmer Life Sciences Inc., Boston, Mass.), according to the manufacturers instructions. […] Cells were rinsed with PBS and detached in dPBS (Dulbecco's Phosphate Buffered Saline, without CaCl2 and MgCl2) containing 2 mM EDTA or Trypsin-EDTA solution (0.05% trypsin/0.53 mM EDTA). After counting cells in Coulter cell counter, cells were pelleted by centrifugation at 1,000 rpm and re-suspended in stimulation buffer containing TBMX (PerkinElmer Kit) pre-warmed to room temperature to a concentration of 1.6×10^6 to 2.8×10^6 cells/mL. About 40,000 to 80,000 cells per well were used in this assay. […] Reactions were incubated for 10 min at 37° C. and stopped by adding 100 μL of cold detection buffer containing [^125I]-cAMP (NEN SMP004, PerkinElmer Life Sciences, Boston, Mass.). […] Data were analyzed by nonlinear regression analysis with the GraphPad Prism Software package (GraphPad Software, Inc., San Diego, Calif.) with the sigmoidal equation. The Cheng-Prusoff equation (Cheng Y, and Prusoff W H., Biochemical Pharmacology, 1973, 22, 23, 3099-108) was used to calculate the EC50 values.

[3] = target: hM3 muscarinic receptor (Homo sapiens (Human), UniProt P20309); assay: Radioligand binding assay for muscarinic receptors ([3H]-NMS displacement, CHO cell membranes)
Description: The cells were grown in a 5% CO2, 37° C. incubator and lifted with 2 mM EDTA in dPBS. Cells were collected by 5 minute centrifugation at 650×g, and cell pellets were either stored frozen at −80° C. or membranes were prepared immediately for use. For membrane preparation, cell pellets were resuspended in lysis buffer and homogenized with a Polytron PT-2100 tissue disrupter (Kinematica AG; 20 seconds×2 bursts). Crude membranes were centrifuged at 40,000×g for 15 minutes at 4° C. The membrane pellet was then resuspended with re-suspension buffer and homogenized again with the Polytron tissue disrupter. The protein concentration of the membrane suspension was determined by the method described in Lowry et al., 1951, […], 193, 265. All membranes were stored frozen in aliquots at −80° C. or used immediately. […] The membranes were briefly homogenized using a Polytron tissue disruptor (10 seconds) prior to assay plate addition. […] The test compounds were initially dissolved to a concentration of 400 μM in dilution buffer and then serially diluted 5× with dilution buffer to final concentrations ranging from 10 μM to […]. The order of addition and volumes added to the assay plates were as follows: 25 μL radioligand, 25 μL diluted test compound, and 50 μL membranes. Assay plates were incubated for 6 hours at 37° C. […] Filter plates were rinsed three times with wash buffer (10 mM HEPES) to remove unbound radioactivity. The plates were then air-dried and 50 μL Microscint-20 liquid scintillation fluid (PerkinElmer, Inc.) were added to each well. The plates were then counted in a PerkinElmer Topcount liquid scintillation counter (PerkinElmer, Inc.). Binding data were analyzed by nonlinear regression analysis with the GraphPad Prism Software package (GraphPad Software, Inc., San Diego, Calif.) using the one-site competition model. […] These summary statistics were then converted back to K; values for data reporting.

[4] = rat, 100 μg by inhalation, 24 h after administration
[5] = hM3 Muscarinic Receptor Binding, data rounded to nearest 0.1 nM

hβ2 adrenergic receptor, sequence (P07550 whole entry): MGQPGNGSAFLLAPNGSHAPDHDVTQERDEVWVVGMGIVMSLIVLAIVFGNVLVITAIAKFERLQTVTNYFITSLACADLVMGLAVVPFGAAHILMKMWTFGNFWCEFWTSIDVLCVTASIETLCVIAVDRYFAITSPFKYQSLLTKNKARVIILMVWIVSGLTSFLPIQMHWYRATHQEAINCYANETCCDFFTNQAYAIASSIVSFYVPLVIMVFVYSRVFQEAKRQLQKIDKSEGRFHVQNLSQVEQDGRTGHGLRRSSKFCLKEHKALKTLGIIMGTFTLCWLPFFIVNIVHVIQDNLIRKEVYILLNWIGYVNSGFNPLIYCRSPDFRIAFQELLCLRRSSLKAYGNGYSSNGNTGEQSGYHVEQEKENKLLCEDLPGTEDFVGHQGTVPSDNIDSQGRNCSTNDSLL
hM3 muscarinic receptor, sequence (P20309 whole entry): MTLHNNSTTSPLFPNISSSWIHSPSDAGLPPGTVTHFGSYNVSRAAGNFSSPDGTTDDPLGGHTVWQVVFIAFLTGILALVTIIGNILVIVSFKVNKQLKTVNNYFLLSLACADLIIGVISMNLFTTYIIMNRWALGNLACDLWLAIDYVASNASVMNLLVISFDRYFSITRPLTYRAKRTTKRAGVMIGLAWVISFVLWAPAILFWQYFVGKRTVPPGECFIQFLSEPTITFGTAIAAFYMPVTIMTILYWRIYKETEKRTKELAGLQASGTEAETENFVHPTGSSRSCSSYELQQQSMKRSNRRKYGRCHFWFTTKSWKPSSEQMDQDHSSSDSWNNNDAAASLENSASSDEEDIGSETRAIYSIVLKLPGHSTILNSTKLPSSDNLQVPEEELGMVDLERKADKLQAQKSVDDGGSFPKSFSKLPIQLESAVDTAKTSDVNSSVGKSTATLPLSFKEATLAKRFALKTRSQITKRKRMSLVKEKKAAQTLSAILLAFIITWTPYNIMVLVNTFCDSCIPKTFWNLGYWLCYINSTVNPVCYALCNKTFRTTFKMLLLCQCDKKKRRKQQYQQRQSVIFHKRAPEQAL

Row | Compound | Broncho. at 24 h [1, 4] | EC50 [2] [pM] | Ki [3] [pM] | inhibition in vivo at 0.1 mg [1, 4] [%] | Ki [3, 5] [pM] | inhibition in vivo at 0.1 mg ([1]; Rattus norvegicus, 24 h) [%]
1 | Cc1cc(CNC[C@H](O)c2ccc(O)c3[nH]c(=O)ccc23)ccc1NC(=O)c1cccc(N(C)C(=O)CCN2CCC(OC(=O)Nc3ccccc3-c3ccccc3)CC2)c1 [Compound I-27] | No | 1000 | 100 |  |  | 
2 | C[C@H](Cc1cccc(CCC(=O)NCc2ccc(N(C)C(=O)CCN3CCC(OC(=O)Nc4ccccc4-c4ccccc4)CC3)cc2)c1)NC[C@H](O)c1ccc(O)c2[nH]c(=O)ccc12 [Compound I-92] |  | 1000 | 200 | > 30 |  | 
3 | COc1cc(NC(=O)CCCCN(C)C(=O)CCN2CCC(OC(=O)Nc3ccccc3-c3ccccc3)CC2)ccc1CNC[C@H](O)c1ccc(O)c2[nH]c(=O)ccc12 [Compound I-17] |  | 1000 | 100 | > 30 |  | 
4 | CN(CCCCC(=O)Nc1ccc(CCNC[C@H](O)c2ccc(O)c3[nH]c(=O)ccc23)cc1)C(=O)CCN1CCC(OC(=O)Nc2ccccc2-c2ccccc2)CC1 [Compound I-21] |  | 1000 | 100 | > 30 |  | 
5 | C[C@H](Cc1cccc(CCNC(=O)c2ccc(N(C)C(=O)CCN3CCC(OC(=O)Nc4ccccc4-c4ccccc4)CC3)cc2)c1)NC[C@H](O)c1ccc(O)c2[nH]c(=O)ccc12 [Compound I-55] |  | 1000 |  | > 30 | 200 | 
6 | Cc1cc(CNC[C@H](O)c2ccc(O)c3[nH]c(=O)ccc23)ccc1NC(=O)CCCN(C)C(=O)CCN1CCC(OC(=O)Nc2ccccc2-c2ccccc2)CC1 [Compound I-2] | No | 1000 | 100 |  |  | 
7 | C[C@H](Cc1cccc(CC(=O)NCCCCN(C)C(=O)CCN2CCC(OC(=O)Nc3ccccc3-c3ccccc3)CC2)c1)NC[C@H](O)c1ccc(O)c2[nH]c(=O)ccc12 [Compound I-23] |  | 1000 | 100 | > 30 |  | 
8 | Cc1ccc(C(=O)Nc2ccc(CNC[C@H](O)c3ccc(O)c4[nH]c(=O)ccc34)cc2)cc1N(C)C(=O)CCN1CCC(OC(=O)Nc2ccccc2-c2ccccc2)CC1 [Compound I-26] |  | 1000 | 200 | > 30 |  | 
9 | C[C@@H](Cc1ccc(CCNC(=O)Cc2ccc(N(C)C(=O)CCN3CCC(OC(=O)Nc4ccccc4-c4ccccc4)CC3)cc2)cc1)NC[C@H](O)c1ccc(O)c2[nH]c(=O)ccc12 [Compound I-89] |  | 1000 | 100 | > 30 |  | 
10 | C[C@H](Cc1cccc(CNC(=O)Cc2ccc(N(C)C(=O)CCN3CCC(OC(=O)Nc4ccccc4-c4ccccc4)CC3)cc2)c1)NC[C@H](O)c1ccc(O)c2[nH]c(=O)ccc12 [Compound I-68] |  | 1000 | 100 | > 30 |  | 
11 | C[C@@H](Cc1cccc(CC(=O)NCc2ccc(N(C)C(=O)CCN3CCC(OC(=O)Nc4ccccc4-c4ccccc4)CC3)cc2)c1)NC[C@H](O)c1ccc(O)c2[nH]c(=O)ccc12 [Compound I-79] | No | 1000 | 100 |  |  | 
12 | C[C@@H](Cc1cccc(CC(=O)NCCCN(C)C(=O)CCN2CCC(OC(=O)Nc3ccccc3-c3ccccc3)CC2)c1)NC[C@H](O)c1ccc(O)c2[nH]c(=O)ccc12 [Compound I-13, Biphenyl-2-ylcarbamic Acid 1-[2-({3-[2-(3-{(S)-2-[(R)-2-Hydroxy-2-(8-hydroxy-2-oxo-1,2-dihydroquinolin-5-yl)ethylamino]propyl}phenyl)acetylamino]-propyl}methylcarbamoyl)ethyl]piperidin-4-yl Ester Ditrifluoroacetic Acid Salt] |  | 1000 | 100 |  |  | > 30
13 | C[C@@H](Cc1cccc(CC(=O)NCCCCN(C)C(=O)CCN2CCC(OC(=O)Nc3ccccc3-c3ccccc3)CC2)c1)NC[C@H](O)c1ccc(O)c2[nH]c(=O)ccc12 [Compound I-24] |  | 1000 | 100 | > 30 |  | 
14 | C[C@H](Cc1cccc(CC(=O)NCc2ccc(N(C)C(=O)CCN3CCC(OC(=O)Nc4ccccc4-c4ccccc4)CC3)cc2)c1)NC[C@H](O)c1ccc(O)c2[nH]c(=O)ccc12 [Compound I-78] |  | 1000 | 300 | > 30 |  | 
15 | CN(CCCC(=O)Nc1ccc(CCNC[C@H](O)c2ccc(O)c3[nH]c(=O)ccc23)cc1)C(=O)CCN1CCC(OC(=O)Nc2ccccc2-c2ccccc2)CC1 [Compound I-8] |  | 1000 | 100 | > 30 |  | 
16 | COc1cc(NC(=O)CCCN(C)C(=O)CCN2CCC(OC(=O)Nc3ccccc3-c3ccccc3)CC2)ccc1CNC[C@H](O)c1ccc(O)c2[nH]c(=O)ccc12 [Compound I-4] |  | 2000 |  | > 30 | 100 | 
17 | CC(Cc1cccc(CC(=O)NCCCN(C)C(=O)CCN2CCC(OC(=O)Nc3ccccc3-c3ccccc3)CC2)c1)NC[C@H](O)c1ccc(O)c2[nH]c(=O)ccc12 (stereo partly shown) [Compound I-11] |  | 1000 | 100 | > 30 |  | 
18 | CN(C(=O)CCN1CCC(OC(=O)Nc2ccccc2-c2ccccc2)CC1)c1cccc(CC(=O)Nc2cccc(CCNC[C@H](O)c3ccc(O)c4[nH]c(=O)ccc34)c2)c1 [Compound I-62] |  |  |  | > 30 |  | 
19 | CC(Cc1cccc(CCNC(=O)Cc2ccc(N(C)C(=O)CCN3CCC(OC(=O)Nc4ccccc4-c4ccccc4)CC3)cc2)c1)NC[C@H](O)c1ccc(O)c2[nH]c(=O)ccc12 (stereo partly shown) [Compound I-85] |  |  |  | > 30 |  | 
20 | C[C@H](Cc1ccc(NC(=O)c2cccc(N(C)C(=O)CCN3CCC(OC(=O)Nc4ccccc4-c4ccccc4)CC3)c2)cc1)NC[C@H](O)c1ccc(O)c2[nH]c(=O)ccc12 [Compound I-42] | No |  |  |  |  | 
21 | CC(Cc1ccc(NC(=O)c2cccc(N(C)C(=O)CCN3CCC(OC(=O)Nc4ccccc4-c4ccccc4)CC3)c2)cc1)NC[C@H](O)c1ccc(O)c2[nH]c(=O)ccc12 (stereo partly shown) [Compound I-40] |  |  |  | > 30 |  | 
